Measurements from US20210092955A1, “METHOD OF CONTROLLING HERBICIDE RESISTANT WEEDS IN CROPS” (SUMITIMO CHEMICAL COMPANY, LIMITED, priority 2018, published 2021).

Key:
Type in all cases: in vivo
[1] = test system: wild-type Amaranthus palmeri; assay: Herbicidal effect, foliar spray in greenhouse pots (Example 4609); conditions: rating 0 to 100, 25 g/ha, foliar spray 216 L/ha, 17 days after treatment
Source text: (§1) Plastic pots each having a diameter of 8 cm and a height of 7 cm were filled with the soil and seedlings of Amaranthus palmeri having a Gly399Ala mutation in PPO2 (originated from Mississippi, USA) were planted. After cultivation in a greenhouse for 31 days, an aqueous spray liquid prepared by diluting a predetermined amount of a commercial saflufenacil formulation (suspension concentrate containing 29.74% of saflufenacil, manufactured by BASF Corp. under the trade name of Sharpen) with water was sprayed uniformly over the weed using a sprayer in an amount of 216 L/ha. Then, the weeds were cultivated in a greenhouse for 17 days, followed by examining the herbicidal effects. For comparison, Amaranthus palmeri having Gly210 deletion in PPO2 (originated from Illinois, USA) and commercially available wild-type Amaranthus palmeri were tested.

[2] = test system: Amaranthus palmeri having a Gly399Ala mutation in PPO2; assay: as above; conditions: rating 0 to 100; 25 g/ha; foliar spray 216 L/ha; 17 days after treatment
Source text: as §1

[3] = test system: Amaranthus palmeri having Gly210 deletion in PPO2; assay: Herbicidal effect, foliar spray in greenhouse pots (Example 4609, comparison); conditions: rating 0 to 100; 25 g/ha; foliar spray 216 L/ha; 17 days after treatment; known art comparison
Source text: as §1

[4] = test system: wild-type Amaranthus palmeri; assay: Herbicidal effect, foliar spray in greenhouse pots (Example 4610); conditions: rating 0 to 100; 100 g/ha; foliar spray 200 L/ha; 4 days after treatment
Source text: (§2) Plastic pots each having a diameter of 8 cm and a height of 7 cm were filled with the soil and seedlings of Amaranthus palmeri having Arg128Gly mutation in PPO2 (originated from Arkansas, USA) were planted. After cultivaited in a greenhouse for 42 days, an aqueous spray liquid prepared by diluting a predetermined amount of trifludimoxazin formulation (emulsifiable concentrate obtained by mixing 20 parts of trifludimoxazin with 80 parts liquid cocktail (5:1 mixture of cyclohexanone and Sorpol 2680X (TOHO Chemical Industry Co., Ltd.))) with water, and its mixture with saflufenacil made by additionally diluting a predetermined amount of commercial saflufenacil formulation (suspension concentrate containing 29.74% of saflufenacil, manufactured by BASF Corp. under the trade name of Sharpen) were separately sprayed over the weed using a sprayer in an amount of 200 L/ha uniformly. Then, the weeds were cultivated in a greenhouse for 4 days, followed by examininig the herbicidal effects on the weeds. For comparison, waterhemp having Gly210 deletion in PPO2 (originated from Illinois, USA), commercially available wild-type waterhemp, and commercially available wild-type Amaranthus palmeri were tested.

[5] = test system: Amaranthus palmeri having Arg128Gly mutation in PPO2; assay: as above; conditions: rating 0 to 100; 100 g/ha; foliar spray 200 L/ha; 4 days after treatment
Source text: as §2

wild-type waterhemp = assay: Herbicidal effect, foliar spray in greenhouse pots (Example 4610, comparison); conditions: rating 0 to 100; 100 g/ha; foliar spray 200 L/ha; 4 days after treatment
Source text: as §2

[6] = test system: waterhemp having Gly210 deletion in PPO2; assay: as above; conditions: rating 0 to 100; 100 g/ha; foliar spray 200 L/ha; 4 days after treatment; known art comparison
Source text: as §2

[7] = test system: Amaranthus palmeri having an Arg128Met mutation in PPO2; assay: Foliar treatment 21 days after sowing (Example 3); conditions: 10, 20, 40, or 80 g/ha foliar treatment 21 days after sowing; examined 14 days after the treatment
Source text: Amaranthus palmeri having an Arg128Met mutation in PPO2 and soybean are sown in a plastic pot. Then, the weeds and soybean are cultivated in a greenhouse. A compound X is applied in an amount of 10, 20, 40, or 80 g/ha by spraying 200 L/ha of an aqueous dilution containing the compound X to perform foliar treatment 21 days after the sowing. Then, the weeds and soybean are cultivated in a greenhouse to examine the effects on the weeds and phytotoxic effects on soybean 14 days after the treatment.

[8] = test system: Amaranthus palmeri having an Arg128Met mutation in PPO2; assay: Soil surface treatment on day of sowing weed and soybean (Example 2); conditions: 10, 20, 40, or 80 g/ha on soil surface on day of sowing; examined after 21 days
Source text: (§3) Amaranthus palmeri having an Arg128Met mutation in PPO2 and soybean are sown in a plastic pot. On the same day, a compound X is applied to the surface of soil in an amount of 10, 20, 40, or 80 g/ha by spraying 200 L/ha of an aqueous dilution containing the compound X. Then, the weeds and soybean are cultivated in a greenhouse to examine the effects on the weeds and phytotoxic effects on soybean after 21 days.

[9] = test system: Amaranthus palmeri having an Arg128Met mutation in PPO2; assay: Soil surface treatment before sowing soybean (Example 1); conditions: 10, 20, 40, or 80 g/ha on soil surface on day of weed sowing; soybean sown after 7 days; examined after 14 days
Source text: as §3, with “is” for “and soybean are”, “[…].” for “X.”, “weeds” for “weeds and soybean”, “greenhouse and soybean seeds are sown after 7 days,” for “greenhouse”, “14” for “21”

Compound: CC(C)N(C)S(=O)(=O)NC(=O)c1cc(-n2c(=O)cc(C(F)(F)F)n(C)c2=O)c(F)cc1Cl [Saflufenacil]
- herbicidal effect, Amaranthus palmeri Wild-type ([1]; Table 1): 100
- herbicidal effect, Amaranthus palmeri Wild-type ([1]; Table 2): 100
- herbicidal effect, Amaranthus palmeri Gly399Ala mutation [2]: 100
- herbicidal effect, Amaranthus palmeri Gly210 deletion [3]: 65

Compound: C#CCN1C(=O)C(F)(F)Oc2cc(F)c(-n3c(=O)n(C)c(=S)n(C)c3=O)cc21 [Trifludimoxazin]
- herbicidal effect, Amaranthus palmeri Wild-type [4]: 90
- herbicidal effect, Amaranthus palmeri Arg128Gly mutation [5]: 88
- herbicidal effect, waterhemp Wild-type (wild-type waterhemp): 95
- herbicidal effect, waterhemp Gly210 deletion [6]: 50

Compound: CCOC(=O)COc1ncccc1Oc1cc(-n2c(=O)cc(C(F)(F)F)n(C)c2=O)c(F)cc1Cl [compound X, Ethyl [3-[2-chloro-4-fluoro-5-(1-methyl-6-trifluoromethyl-2,1-dioxo-1,2,3,1-tetrahydropyrimidine-3-yl)phenoxy]-2-pyridyloxy]acetate]
- effects on the weeds [7]: valuable effect
- effects on the weeds [8]: valuable effect
- effects on the weeds [9]: valuable effect
